Results taken from ChEMBL document CHEMBL3045391, “Synthesis and biological evaluation of 5,7-diaryl-4,4-dimethyl-4,5,6,7-tetrahydropyridino[3,4-d]-1,2,3-thiadiazoles” (2007).
Activity calls are given as the source filed them. The rule behind the calls is not given here.

Assays:
Salmonella typhi [1] = assay: Antibacterial activity against Salmonella enterica subsp. enterica serovar Typhi at 100 ppm after 24 hr by disk diffusion method; type: functional; conditions: for zone of inhibition at 100 ppm: read-out: IZ
Pseudomonas [2] = assay: Antibacterial activity against Pseudomonas at 100 ppm after 24 hr by disk diffusion method; type: functional
Rhizopus [3] = assay: Antifungal activity against Rhizopus at 100 ppm after 72 to 96 hr by disk diffusion method; type: functional; conditions: for zone of inhibition at 100 ppm: read-out: IZ
Staphylococcus aureus [4] = assay: Antibacterial activity against Staphylococcus aureus at 500 ppm after 24 hr by disk diffusion method; type: functional; conditions: read-out: IZ
Mucor [5] = assay: Antifungal activity against Mucor at 200 ppm after 72 to 96 hr by disk diffusion method; type: functional; conditions: read-out: IZ
Streptococcus [6] = assay: Antibacterial activity against beta-hemolytic Streptococcus at 200 ppm after 24 hr by disk diffusion method; type: functional; conditions: read-out: IZ
Mucor [7] = assay: Antifungal activity against Mucor at 500 ppm after 72 to 96 hr by disk diffusion method; type: functional; conditions: read-out: IZ
Rhizopus [8] = assay: Antifungal activity against Rhizopus at 200 ppm after 72 to 96 hr by disk diffusion method; type: functional; conditions: read-out: IZ
Pseudomonas [9] = assay: Antibacterial activity against Pseudomonas at 200 ppm after 24 hr by disk diffusion method; type: functional; conditions: read-out: IZ
Salmonella typhi [10] = assay: Antibacterial activity against Salmonella enterica subsp. enterica serovar Typhi at 200 ppm after 24 hr by disk diffusion method; type: functional; conditions: read-out: IZ
Pseudomonas [11] = assay: Antibacterial activity against Pseudomonas at 500 ppm after 24 hr by disk diffusion method; type: functional; conditions: read-out: IZ
Shigella flexneri [12] = assay: Antibacterial activity against Shigella flexneri at 500 ppm after 24 hr by disk diffusion method; type: functional; conditions: read-out: IZ
Mucor [13] = assay: Antifungal activity against Mucor at 100 ppm after 72 to 96 hr by disk diffusion method; type: functional
Aspergillus flavus [14] = assay: Antifungal activity against Aspergillus flavus at 100 ppm after 72 to 96 hr by disk diffusion method; type: functional; conditions: read-out: IZ
Streptococcus [15] = assay: Antibacterial activity against beta-hemolytic Streptococcus at 500 ppm after 24 hr by disk diffusion method; type: functional; conditions: read-out: IZ
Aspergillus flavus [16] = assay: Antifungal activity against Aspergillus flavus at 200 ppm after 72 to 96 hr by disk diffusion method; type: functional; conditions: read-out: IZ
Vibrio cholerae [17] = assay: Antibacterial activity against Vibrio cholerae at 200 ppm after 24 hr by disk diffusion method; type: functional; conditions: read-out: IZ
Nannizzia gypsea [18] = assay: Antifungal activity against Microsporum gypseum at 100 ppm after 72 to 96 hr by disk diffusion method; type: functional; conditions: read-out: IZ
Staphylococcus aureus [19] = assay: Antibacterial activity against Staphylococcus aureus at 200 ppm after 24 hr by disk diffusion method; type: functional; conditions: read-out: IZ
Nannizzia gypsea [20] = assay: Antifungal activity against Microsporum gypseum at 500 ppm after 72 to 96 hr by disk diffusion method; type: functional; conditions: read-out: IZ
Klebsiella pneumoniae [21] = assay: Antibacterial activity against Klebsiella pneumoniae at 100 ppm after 24 hr by disk diffusion method; type: functional; conditions: read-out: IZ
Salmonella typhi [22] = assay: Antibacterial activity against Salmonella enterica subsp. enterica serovar Typhi at 500 ppm after 24 hr by disk diffusion method; type: functional; conditions: read-out: IZ
Nannizzia gypsea [23] = assay: Antifungal activity against Microsporum gypseum at 200 ppm after 72 to 96 hr by disk diffusion method; type: functional; conditions: read-out: IZ
Vibrio cholerae [24] = assay: Antibacterial activity against Vibrio cholerae at 100 ppm after 24 hr by disk diffusion method; type: functional; conditions: read-out: IZ
Klebsiella pneumoniae [25] = assay: Antibacterial activity against Klebsiella pneumoniae at 200 ppm after 24 hr by disk diffusion method; type: functional; conditions: read-out: IZ
Shigella flexneri [26] = assay: Antibacterial activity against Shigella flexneri at 200 ppm after 24 hr by disk diffusion method; type: functional; conditions: read-out: IZ
Vibrio cholerae [27] = assay: Antibacterial activity against Vibrio cholerae at 500 ppm after 24 hr by disk diffusion method; type: functional; conditions: read-out: IZ
Escherichia coli [28] = assay: Antibacterial activity against Escherichia coli at 100 ppm after 24 hr by disk diffusion method; type: functional, organism-based
Streptococcus [29] = assay: Antibacterial activity against beta-hemolytic Streptococcus at 100 ppm after 24 hr by disk diffusion method; type: functional, organism-based
Klebsiella pneumoniae [30] = assay: Antibacterial activity against Klebsiella pneumoniae at 500 ppm after 24 hr by disk diffusion method; type: functional; conditions: read-out: IZ
Escherichia coli [31] = assay: Antibacterial activity against Escherichia coli at 500 ppm after 24 hr by disk diffusion method; type: functional; conditions: read-out: IZ
Staphylococcus aureus [32] = assay: Antibacterial activity against Staphylococcus aureus at 100 ppm after 24 hr by disk diffusion method; type: functional; conditions: for zone of inhibition at 100 ppm: read-out: IZ
Shigella flexneri [33] = assay: Antibacterial activity against Shigella flexneri at 100 ppm after 24 hr by disk diffusion method; type: functional; conditions: read-out: IZ
Aspergillus flavus [34] = assay: Antifungal activity against Aspergillus flavus at 500 ppm after 72 to 96 hr by disk diffusion method; type: functional; conditions: read-out: IZ
Rhizopus [35] = assay: Antifungal activity against Rhizopus at 500 ppm after 72 to 96 hr by disk diffusion method; type: functional; conditions: read-out: IZ
Escherichia coli [36] = assay: Antibacterial activity against Escherichia coli at 200 ppm after 24 hr by disk diffusion method; type: functional; conditions: read-out: IZ

SMILES | inhibition zone (IZ) (Pseudomonas [2]) | zone of inhibition at 500 ppm (Staphylococcus aureus [4]) [mm] | zone of inhibition at 200 ppm (Mucor [5]) [mm] | zone of inhibition at 200 ppm (Streptococcus [6]) [mm] | zone of inhibition at 500 ppm (Mucor [7]) [mm] | zone of inhibition at 200 ppm (Rhizopus [8]) [mm] | zone of inhibition at 200 ppm (Pseudomonas [9]) [mm] | zone of inhibition at 200 ppm (Salmonella typhi [10]) [mm] | zone of inhibition at 500 ppm (Pseudomonas [11]) [mm] | zone of inhibition at 500 ppm (Shigella flexneri [12]) [mm] | zone of inhibition at 100 ppm (Aspergillus flavus [14]) [mm] | zone of inhibition at 500 ppm (Streptococcus [15]) [mm] | zone of inhibition at 200 ppm (Aspergillus flavus [16]) [mm] | zone of inhibition at 200 ppm (Vibrio cholerae [17]) [mm] | zone of inhibition at 100 ppm (Nannizzia gypsea [18]) [mm] | zone of inhibition at 200 ppm (Staphylococcus aureus [19]) [mm] | zone of inhibition at 500 ppm (Nannizzia gypsea [20]) [mm] | zone of inhibition at 100 ppm (Klebsiella pneumoniae [21]) [mm] | zone of inhibition at 500 ppm (Salmonella typhi [22]) [mm] | zone of inhibition at 200 ppm (Nannizzia gypsea [23]) [mm] | other results
COc1ccc(C2NC(c3ccc(OC)cc3)C(C)(C)c3nnsc32)cc1 (centres undefined) | inactive | 30 | 17 | 12 | 17 | 12 | 12 | 17 | 12 | 17 | 12 | 30 | 12 | 17 | 12 | 22 | 30 | 17 | 17 | 17 | zone of inhibition at 100 ppm (Salmonella typhi [1]): 12 mm; inhibition zone (IZ) (Rhizopus [3]): inactive; zone of inhibition at 100 ppm (Mucor [13]; read-out: IZ): 12 mm; zone of inhibition at 100 ppm (Vibrio cholerae [24]): 12 mm; zone of inhibition at 200 ppm (Klebsiella pneumoniae [25]): 17 mm; zone of inhibition at 200 ppm (Shigella flexneri [26]): 17 mm; zone of inhibition at 500 ppm (Vibrio cholerae [27]): 17 mm; inhibition zone (IZ) (Escherichia coli [28]): inactive; inhibition zone (IZ) (Streptococcus [29]): inactive; zone of inhibition at 500 ppm (Klebsiella pneumoniae [30]): 22 mm; zone of inhibition at 500 ppm (Escherichia coli [31]): 17 mm; zone of inhibition at 100 ppm (Staphylococcus aureus [32]): 12 mm; zone of inhibition at 100 ppm (Shigella flexneri [33]): 12 mm; zone of inhibition at 500 ppm (Aspergillus flavus [34]): 17 mm; zone of inhibition at 500 ppm (Rhizopus [35]): 22 mm; zone of inhibition at 200 ppm (Escherichia coli [36]): 17 mm
CC1(C)c2nnsc2C(c2ccc(F)cc2)NC1c1ccc(F)cc1 (centres undefined) | inactive | 30 | 17 | 17 | 17 | 22 | 17 | 12 | 17 | 17 | 12 | 22 | 17 | 17 | 17 | 22 | 30 | 17 | 12 | 22 | zone of inhibition at 100 ppm (Salmonella typhi [1]): 12 mm; zone of inhibition at 100 ppm (Rhizopus [3]): 12 mm; inhibition zone (IZ) (Mucor [13]): inactive; zone of inhibition at 100 ppm (Vibrio cholerae [24]): 12 mm; zone of inhibition at 200 ppm (Klebsiella pneumoniae [25]): 17 mm; zone of inhibition at 200 ppm (Shigella flexneri [26]): 17 mm; zone of inhibition at 500 ppm (Vibrio cholerae [27]): 17 mm; inhibition zone (IZ) (Escherichia coli [28]): inactive; inhibition zone (IZ) (Streptococcus [29]): inactive; zone of inhibition at 500 ppm (Klebsiella pneumoniae [30]): 22 mm; zone of inhibition at 500 ppm (Escherichia coli [31]): 17 mm; inhibition zone (IZ) (Staphylococcus aureus [32]): inactive; zone of inhibition at 100 ppm (Shigella flexneri [33]): 12 mm; zone of inhibition at 500 ppm (Aspergillus flavus [34]): 17 mm; zone of inhibition at 500 ppm (Rhizopus [35]): 22 mm; zone of inhibition at 200 ppm (Escherichia coli [36]): 17 mm
CC1(C)c2nnsc2C(c2ccc(Cl)cc2)NC1c1ccc(Cl)cc1 (centres undefined) | inactive | 30 | 12 | 12 | 12 | 12 | 12 | 17 | 12 | 12 | 12 | 30 | 12 | 12 | 12 | 22 | 22 | 12 | 17 | 17 | inhibition zone (IZ) (Salmonella typhi [1]): inactive; inhibition zone (IZ) (Rhizopus [3]): inactive; inhibition zone (IZ) (Mucor [13]): inactive; zone of inhibition at 100 ppm (Vibrio cholerae [24]): 12 mm; zone of inhibition at 200 ppm (Klebsiella pneumoniae [25]): 17 mm; zone of inhibition at 200 ppm (Shigella flexneri [26]): 12 mm; zone of inhibition at 500 ppm (Vibrio cholerae [27]): 12 mm; inhibition zone (IZ) (Escherichia coli [28]): inactive; inhibition zone (IZ) (Streptococcus [29]): inactive; zone of inhibition at 500 ppm (Klebsiella pneumoniae [30]): 22 mm; zone of inhibition at 500 ppm (Escherichia coli [31]): 17 mm; zone of inhibition at 100 ppm (Staphylococcus aureus [32]): 12 mm; zone of inhibition at 100 ppm (Shigella flexneri [33]): 12 mm; zone of inhibition at 500 ppm (Aspergillus flavus [34]): 17 mm; zone of inhibition at 500 ppm (Rhizopus [35]): 22 mm; zone of inhibition at 200 ppm (Escherichia coli [36]): 12 mm
Cc1ccc(C2NC(c3ccc(C)cc3)C(C)(C)c3nnsc32)cc1 (centres undefined) | inactive | 30 | 17 | 17 | 17 | 17 | 12 | 12 | 12 | 17 | 12 | 30 | 12 | 17 | 17 | 22 | 30 | 17 | 12 | 22 | zone of inhibition at 100 ppm (Salmonella typhi [1]): 12 mm; zone of inhibition at 100 ppm (Rhizopus [3]): 12 mm; inhibition zone (IZ) (Mucor [13]): inactive; zone of inhibition at 100 ppm (Vibrio cholerae [24]): 12 mm; zone of inhibition at 200 ppm (Klebsiella pneumoniae [25]): 17 mm; zone of inhibition at 200 ppm (Shigella flexneri [26]): 17 mm; zone of inhibition at 500 ppm (Vibrio cholerae [27]): 17 mm; inhibition zone (IZ) (Escherichia coli [28]): inactive; inhibition zone (IZ) (Streptococcus [29]): inactive; zone of inhibition at 500 ppm (Klebsiella pneumoniae [30]): 22 mm; zone of inhibition at 500 ppm (Escherichia coli [31]): 17 mm; inhibition zone (IZ) (Staphylococcus aureus [32]): inactive; zone of inhibition at 100 ppm (Shigella flexneri [33]): 12 mm; zone of inhibition at 500 ppm (Aspergillus flavus [34]): 12 mm; zone of inhibition at 500 ppm (Rhizopus [35]): 22 mm; zone of inhibition at 200 ppm (Escherichia coli [36]): 12 mm
